Measured values published in patent publication EP1849776A1, “Azepane- or Azocane-substituted pyrazoline compounds, their preparation and use as medicaments” (LABORATORIOS DEL DR. ESTEVE, S.A., priority 2006, dated 2007).

Tests used:
Male NMRI mice = test: Mouse tetrad model, antagonistic activity against Win 55212-2; format: in vivo; settings: against Win 55212-2 (1.25 mg/kg intravenous), substance injected 5 minutes before the agonist, tetrad component not specified
From the text: Substances with affinity for cannabinoid receptors are known to produce a wide range of pharmacological effects. It is also known that intravenous administration of a substance with affinity for cannabinoid receptors in mice produces analgesia , hypothermia, sedation and catalepsy. Individually, none of these effects can be considered as proof that a tested substance has affinity for cannabinoid-receptors, since all of these effects are common for various classes of centrally active agents. However, substances, which show all of these effects, i.e. substances that are active in this so-called tetrad model are considered to have affinity for the cannabinoid receptors. It has further been shown that cannabinoid receptor antagonists are higly effective in blocking the effects of a cannabinoid agonist in the mouse tetrad model.
The tetrad model is described, for example, in the publication of A. C. Howlett et al, International Union of Pharmacology XXVII. […]
Before testing in the behavioral procedures given below, mice are acclimatized to the experimental setting. Pre-Treatment control values are determined for analgesia hot plate latency (in seconds), rectal temperature, sedation and catalepsy.
In order to determine the agonistic activty of the substance to be tested, the mice are injected intravenously with the substance to be tested or the vehicle alone. 15 minutes after injection, latency in hot plate analgesia is measured. Rectal temperature, sedation and catalepsy are measured 20 minutes after injection.
In order to determine the antagonistic activity the identical procedure is used as for the determination of the agonistic effects, but with the difference that the substance to be evaluated for its antagonistic activity is injectected 5 minutes before the intravenous injection of 1.25 mg/kg Win-55,212 a known cannabinoid-receptor agonist.
The hot plate analgesia is determined according to the method described in Woolfe D. et al. "The evaluation of analgesic action of pethidine hydrochloride (Demerol)", J. Pharmacol. Exp. Ther. 80, 300-307,1944. […]

CB1-Receptor = target: T1, CB1-Receptor (Homo sapiens, UniProt P21554); test: In-vitro determination of affinity to CB1 receptor (radioligand binding); settings: transfected human CB1 receptors of Receptor Biology, Inc.; radioligand [^3H]-CP55940; read-out: CB1-Receptor Radiologand:[^3H]-CP55940 IC50
T1 construct: purchased Receptor Biology, Inc
Protocol: The in-vitro determination of the affinity of the inventive quaternary ammonium salts of substituted pyrazoline compounds to CB1/CB2-Rezeptors is carried out as described in the publication of Ruth A. Ross, Heather C. Brockie et al., "Agonist-inverse agonist characterization at CB1 and CB2 cannabinoid receptors of L-759633, L759656 and AM630", British Journal of Pharmacology, 126, 665-672, (1999), whereby the transfected human CB1 and CB2 receptors of Receptor Biology, Inc. are used. The radioligand used for both receptors is [^3H]-CP55940. The respective parts of the description are hereby incorporated by reference and forms part of the present disclosure.

T1 sequence (P21554 whole entry): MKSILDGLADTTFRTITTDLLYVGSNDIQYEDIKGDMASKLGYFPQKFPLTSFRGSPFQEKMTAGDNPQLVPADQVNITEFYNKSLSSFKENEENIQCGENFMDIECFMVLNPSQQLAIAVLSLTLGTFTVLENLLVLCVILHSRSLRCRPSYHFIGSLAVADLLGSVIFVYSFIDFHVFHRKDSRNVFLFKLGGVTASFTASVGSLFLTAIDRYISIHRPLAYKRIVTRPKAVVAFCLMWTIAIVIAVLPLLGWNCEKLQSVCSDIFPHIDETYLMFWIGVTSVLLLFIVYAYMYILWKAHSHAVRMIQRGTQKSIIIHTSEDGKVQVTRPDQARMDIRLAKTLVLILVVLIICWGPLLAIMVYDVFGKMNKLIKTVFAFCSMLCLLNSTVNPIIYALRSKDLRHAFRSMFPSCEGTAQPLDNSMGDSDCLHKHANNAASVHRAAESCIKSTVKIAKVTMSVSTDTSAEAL

Compound | Antagonistic Effect in (%) (Male NMRI mice) | IC50 (CB1-Receptor) [nM]
O=C(NN1CCCCCC1)C1=NN(c2ccc(Cl)cc2Cl)C(c2ccc(Cl)cc2)C1 (centres unmarked) [Example 1, N-(azepan-1-yl)-5-(4-chlorophenyl)-1-(2,4-dichlorophenyl)-4,5-dihydro-1H-pyrazole-3-carboxamide] | 116±2 | 25
O=C(NN1CCCCCC1)C1=NN(c2ccc(Cl)cc2Cl)C(c2ccc(Br)cc2)C1 (centres unmarked) [Example 4, N-(azepan-1-yl)-5-(4-bromophenyl)-1-(2,4-dichlorophenyl)-4,5-dihydro-1H-pyrazole-3-carboxamide] | 100±6 | –
O=C(NN1CCCCCC1)C1=NN(c2ccc(Cl)cc2Cl)[C@@H](c2ccc(Cl)cc2)C1 [Example 2, (R)-N-(azepan-1-yl)-5-(4-chlorophenyl)-1-(2,4-dichlorophenyl)-4,5-dihydro-1H-pyrazole-3-carboxamide] | 137.2 | 7.9
